The test system of data set [1] is SUM149PT. Nature of the data set: Cell cytotoxicity assay (MTT), SUM149PT. It is filed as cell-based. The following applies: 72 h, read-out: IC50 cell viability. The method, then: (§1) Cell Culture. Triple negative breast cancer (TNBC) cell lines HCC1143, SUM149PT, SUM159PT, and MDA-MB-231 were obtained from ATCC. The MDA-MB-231-LM3-3 (LM3-3) cell line was developed from lung metastasis derived from a MDA-MB-231-LM2 xenograft tumor in the mammary fat pad of a SCID mouse.
(§2) The HCC1143 cell line was grown in RPMI-1640 medium, SUM149PT and SUM159PT cell lines were grown in F-12 medium, and MDA-MB-231 cells were grown in DMEM. All culture media were supplemented with 10% fetal bovine serum. All cell lines were grown in a humidified incubator containing 5% CO2 at 37° C. Primary hepatocytes were isolated from an adult male mouse (C57BL) by collagenase perfusion (0.8 mg/mL; Sigma-Aldrich, C5138) through the portal vein and maintained in M199 medium with 10% FBS. The viability of freshly isolated hepatocytes was verified using Trypan blue staining.
(§3) Cell Cytotoxicity Assays. TNBC cells (5000 to 7000 cells per well) were seeded in 96-well plates in medium supplemented with 10% FBS. […] Cell viabilities relative to untreated control cells were plotted using Graphpad Prism.

Data set [2] has as its target T1, SRC-3 (Homo sapiens, UniProt Q9Y6Q9).
T1 construct: endogenous in cells; host or cells: HCC1143, SUM149PT, SUM159PT, MDA-MB-231, MDA-MB-231-LM3-3
Nature of the data set: Western blotting of SRC-3 protein in TNBC cells. It counts as cell-based. The method, then:
Western Blotting Assays. Cell lysate was prepared by adding RIPA buffer (containing 10 mM Tris-Cl pH 8.0, 1 mM EDTA, 0.5 mM EGTA, 1% Triton X-100, 0.1% sodium deoxycholate, 0.1% SDS, 140 mM NaCl, and protease inhibitors) to cells kept on ice. After spinning samples at 16,000 rpm for 15 minutes at 4 ° C., insoluble materials in the collected cell lysate were precipitated and discarded. The total protein concentration was measured using a Bradford protein assay. An equivalent mass of each sample was loaded and electrophoretically separated by 10% SDS-PAGE. Then, proteins on PAGE the gel were transferred to a PVDF membrane. Anti-SRC-3 (Cell Signaling Technology Co. Cat#2126) and anti-actin (Cell Signaling Technology Co. Cat#8457) were used to probe the membranes.
Background: In western blotting, separated proteins are transferred to a membrane and probed.

The subject of data set [3] is LM3-3 cells. Nature of the data set: Bufalin and gefitinib cotreatment, cell viability. It counts as cell-based.
The test system of data set [4] is LM3-3 cells. Nature of the data set: Single cell motility assay. It counts as cell-based. The method, then:
Single Cell Motility Assays. Microtiter 96-well plates pre-coated with collagen V were covered with beads provided by a Cell Motility HCS kit (Thermo Scientific Co. Cat# K0800011). LM3-3 cells (500) were seeded in each bead-coated well. […] The cell track areas (pixels) were counted using Image J. To attain statistical significance, more than 50 cell tracks in each sample were counted.

Data set [5] addresses T1, SRC-3. As to conditions: receptor interacting domain; cited from earlier work.
In data set [6] the test system is MDA-MB-231. Nature of the data set: Cell cytotoxicity assay (MTT), MDA-MB-231. It is filed as cell-based. As to conditions: MDA-MB-231, 72 h, read-out: IC50 cell viability. The method, then:
as §1, §2, §3

The subject of data set [7] is SUM159PT. As to the kind of experiment: Cell cytotoxicity assay (MTT), SUM159PT. It counts as cell-based. As to conditions: 72 h, read-out: IC50 cell viability. The method, then:
as §1, §2, §3

The subject of data set [8] is HCC1143. As to the kind of experiment: Cell cytotoxicity assay (MTT), HCC1143. It is filed as cell-based. As to conditions: HCC1143, 72 h, read-out: IC50 cell viability. The method, then:
as §1, §2, §3

The test system of data set [9] is MDA-MB-231-LM3-3. Nature of the data set: Cell cytotoxicity assay (MTT), MDA-MB-231-LM3-3. It counts as cell-based. The following applies: MDA-MB-231-LM3-3, 72 h, read-out: IC50 cell viability. The protocol:
as §1, §2, §3

For data set [10], the system named is cancer cells. As to conditions: cited from earlier work.
A short description of data set [11]: Pharmacokinetic studies of bufalin and 3-phospho-bufalin. As to conditions: p-buf 0.5 mg/kg i.p.
Protocol: Five quality control (QC) samples at 10 ng/mL, 20 ng/mL, 500 ng/mL, 4000 ng/mL and 8000 ng/mL of plasma were prepared independently of those used for the calibration curves. QC samples were prepared on the day of analysis in the same way as the calibration standards.
Standards, QC samples, and unknown samples were injected into a LC/MS/MS machine for quantitative analysis. […] For i.p. injected P-Buf, the PK trace was fittedto a non-compartmental extravascular model.
P-Buf was dissolved in PBS and administered intraperitoneally at the same dose.
The test system of data set [12] is Female ICR mice. Nature of the data set: Electrocardiogram (EKG) measurements in mice. It counts as in vivo, mouse.
Protocol: Electrocardiogram (EKG) Measurements. […] Non-invasive EKG recordings were made using the ECGenie system (Mouse Specifics) at several subsequent time points. […] Data acquisition was performed using the program LabChart 6 (ADlnstruments). Individual EKG signals were then evaluated using e-MOUSE physiologic waveform analysis software (Mouse Specifics) as previously described.
Data set [13] has as its system mouse heart tissues. As to the kind of experiment: H-E staining of mouse heart tissues. It is filed as in vivo. The following applies: 24 hours after drug administration.
For data set [14], the system named is MDA-MB-231-LM3-3 orthotopic breast tumors. As to the kind of experiment: Therapeutic efficacy in an orthotopic TNBC mouse model. It is filed as in vivo. The following applies: 0.75 mg/kg three times per week. The protocol:
Therapeutic Efficacy of 3-phospho-bufalin in an Orthotopic TNBC Mouse Model. To establish orthotopic breast tumors, 0.75×10^6 MDA-MB-231-LM3-3 cells were injected into one of the second mammary fat pads of nude mice (Charles River Laboratories, female, 6-7 weeks, n=6/group). When tumors became palpable, generally 14 days after injection, mice were randomized into two groups. The treatment group was then injected with phospho-bufalin subcutaneously (0.75 mg/kg per dose, 3 doses per week) for 3 weeks while the control group received PBS. Tumor lengths and widths were measured three times per week. Tumor sizes were calculated by: (length×width×width)/2.
The therapeutic efficacy of P-Buf was tested in an orthotopic TNBC model. LM3-3 cells (0.75×10^6 cells per mouse) were inoculated into the second pair of mammary gland fat pads of nude mice (female, […]). The mice were randomized into two groups based on luciferase imaging (n=6 per group). Fourteen days after tumor inoculation, the treatment group began receiving P-Buf (0.75 mg/kg) three times per week while the control group received PBS. Tumor volumes were measured three times per week. […] At day 31, the mice were euthanized and tumors were harvested. The tumors derived from PBS treated mice weighed ˜2.4 times more than those of the experimental treatment group (FIGS. 8B and C).

[15] abbreviates: 3-phospho-bufalin 7.5 mg/kg i.p., +10 min post-injection.
[16] abbreviates: 3-phospho-bufalin 7.5 mg/kg i.p., −5 min post-injection (baseline).
Setting [17] is: 3-phospho-bufalin 11.25 mg/kg i.p., +5 min post-injection.
Setting [18] is: 3-phospho-bufalin 11.25 mg/kg i.p., +10 min post-injection.
Where [19] appears, read: 3-phospho-bufalin 11.25 mg/kg i.p., +15 min post-injection.
Where [20] appears, read: 3-phospho-bufalin 11.25 mg/kg i.p., −5 min post-injection (baseline).

By IC50 is commonly meant the concentration that gives 50% inhibition.

SMILES strings stand for the structures.

T1 sequence (Q9Y6Q9 whole entry): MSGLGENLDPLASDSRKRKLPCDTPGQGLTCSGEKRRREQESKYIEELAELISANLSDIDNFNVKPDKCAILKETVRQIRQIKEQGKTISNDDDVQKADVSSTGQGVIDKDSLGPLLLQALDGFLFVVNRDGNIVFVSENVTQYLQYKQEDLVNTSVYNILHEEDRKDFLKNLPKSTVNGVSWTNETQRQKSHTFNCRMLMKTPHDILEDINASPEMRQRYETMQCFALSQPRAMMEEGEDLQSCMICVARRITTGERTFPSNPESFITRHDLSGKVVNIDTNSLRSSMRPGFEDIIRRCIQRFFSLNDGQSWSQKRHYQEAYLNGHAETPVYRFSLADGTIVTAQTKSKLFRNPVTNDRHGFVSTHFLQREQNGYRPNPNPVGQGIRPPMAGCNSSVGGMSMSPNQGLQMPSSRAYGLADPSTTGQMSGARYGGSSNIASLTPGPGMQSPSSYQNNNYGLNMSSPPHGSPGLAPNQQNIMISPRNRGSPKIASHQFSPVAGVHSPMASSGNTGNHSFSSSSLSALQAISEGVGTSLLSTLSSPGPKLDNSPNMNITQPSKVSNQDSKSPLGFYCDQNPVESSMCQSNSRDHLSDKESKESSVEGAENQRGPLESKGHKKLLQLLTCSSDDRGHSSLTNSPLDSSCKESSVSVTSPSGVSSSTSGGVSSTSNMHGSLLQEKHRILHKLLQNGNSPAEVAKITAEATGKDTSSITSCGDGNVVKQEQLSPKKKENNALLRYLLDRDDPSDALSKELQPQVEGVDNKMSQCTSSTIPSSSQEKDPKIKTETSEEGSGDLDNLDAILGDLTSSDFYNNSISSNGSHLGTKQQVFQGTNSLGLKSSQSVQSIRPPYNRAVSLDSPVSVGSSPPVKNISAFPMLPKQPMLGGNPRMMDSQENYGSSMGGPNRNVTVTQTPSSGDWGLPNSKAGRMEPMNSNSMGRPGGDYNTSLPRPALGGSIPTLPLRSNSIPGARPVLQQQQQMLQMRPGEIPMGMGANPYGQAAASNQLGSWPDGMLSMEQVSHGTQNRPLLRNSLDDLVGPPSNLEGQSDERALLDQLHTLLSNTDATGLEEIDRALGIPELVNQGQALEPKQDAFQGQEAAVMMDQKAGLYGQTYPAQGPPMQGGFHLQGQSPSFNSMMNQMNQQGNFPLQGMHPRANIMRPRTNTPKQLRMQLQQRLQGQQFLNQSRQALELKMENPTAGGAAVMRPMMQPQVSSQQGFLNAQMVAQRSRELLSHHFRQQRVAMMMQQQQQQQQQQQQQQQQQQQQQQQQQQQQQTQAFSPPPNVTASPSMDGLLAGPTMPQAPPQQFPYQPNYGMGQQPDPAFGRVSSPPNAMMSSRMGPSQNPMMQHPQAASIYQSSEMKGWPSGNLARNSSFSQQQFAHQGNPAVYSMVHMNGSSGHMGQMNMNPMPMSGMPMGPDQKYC

`C[C@]12CC[C@H](O)C[C@H]1CC[C@@H]1[C@@H]2CC[C@]2(C)[C@@H](c3ccc(=O)oc3)CC[C@]12O` [Bufalin, bufalin]: the IC50 in data set [1] was below 20 nM; in [6], below 20 nM; in data set [7] it was below 20 nM; in [8], 71.8 nM; in [9], below 20 nM. Besides, the SRC-3 protein expression result in data set [2] (100 nM, HCC1143, SUM149PT, SUM159PT, MDA-MB-231, MDA-MB-231-LM3-3) is “downregulate SRC-3 protein expression”. The “SRC-3 protein level, dose dependence” value in data set [2] (MDA-MB-231-LM3-3) is given as “downregulated SRC-3 in MDA-MB-231-LM3-3 in a dose-dependent manner”. In addition, the “synergy with gefitinib on cell viability” value in data set [3] (5 or 10 nM bufalin with gefitinib, LM3-3 cells) is on record as “synergize with gefitinib”. Moreover, the “toxicity toward LM3-3 cells under motility assay conditions” value in data set [4] (12 hour time point) is “minimal toxicity”. For the same compound, the “motility of LM3-3 cells” value in [4] (increasing concentrations of bufalin) is “decreased with increasing concentrations of bufalin”. Besides, the “binding to SRC-3” value in [5] was “directly binds to SRC-3 in its receptor interacting domain”. Further, in data set [10], the IC50 values result was “low nM range”.
`C[C@]12CC[C@H](OP(=O)(O)O)C[C@H]1CC[C@@H]1[C@@H]2CC[C@]2(C)[C@@H](c3ccc(=O)oc3)CC[C@]12O` [3-Phospho-Bufalin, 3-Phospho-bufalin]: in data set [11] (mice), the AUCInf is 0.046 ± 0.018 µM·h and the AUClast/D came out at 0.075 ± 0.044 µM·kg·h/mg. Further, the “conversion to parent bufalin in vivo” value in data set [11] (free bufalin detected in plasma) is reported as “can be converted to parent bufalin in vivo”. Further, the “changes in EKG parameters” value in [12] (7.5 mg/kg and 11.25 mg/kg i.p.) was “no significant changes in EKG parameters were observed”. In [12] (setting [15]), the HR is on record as 788.7 ± 1.2 BPM, the QRS was 11.0 ± 0.1 ms, the QT came to 38.2 ± 0.9 ms and the QTc amounted to 43.8 ± 1.0 ms. Also, in [12] (setting [15]), the RR turned out to be 76.1 ± 0.1 ms and the ST amounted to 27.6 ± 0.9 ms. For the same compound, in [12] (setting [16]), the HR was 754.7 ± 6.6 BPM, the QRS is recorded as 10.6 ± 0.1 ms, the QT came to 40.2 ± 0.6 ms and the QTc is 45.0 ± 0.5 ms. In data set [12] (setting [16]), this compound displayed an RR of 79.6 ± 0.7 ms and an ST of 30.1 ± 0.7 ms. For the same compound, in [12] (setting [17]), the HR came out at 779.7 ± 1.5 BPM, the QRS is recorded as 10.9 ± 0.1 ms, the QT is recorded as 37.1 ± 0.3 ms and the QTc stood at 42.3 ± 0.4 ms. For the same compound, in data set [12] (setting [17]), the RR is on record as 77.0 ± 0.1 ms and the ST came to 26.7 ± 0.4 ms. In data set [12] (setting [18]), this compound yielded an HR of 761.3 ± 7.5 BPM, a QRS of 11.1 ± 0.2 ms, a QT of 38.1 ± 0.6 ms and a QTc of 43.0 ± 0.6 ms. In data set [12] (setting [18]), the RR stood at 78.8 ± 0.8 ms and the ST came to 26.6 ± 0.5 ms. Also, in data set [12] (setting [19]), the HR was 755.0 ± 1.0 BPM, the QRS was determined as 11.5 ± 0.1 ms, the QT is 39.1 ± 0.9 ms and the QTc worked out at 43.9 ± 0.9 ms. In data set [12] (setting [19]), the RR was determined as 79.5 ± 0.1 ms and the ST was 28.1 ± 0.8 ms. Moreover, in data set [12] (setting [20]), the HR was determined as 798.0 ± 12.8 BPM, the QRS is reported as 10.6 ± 0.3 ms, the QT is 39.1 ± 2.4 ms and the QTc came to 45.1 ± 2.9 ms. In data set [12] (setting [20]), this compound yielded an RR of 75.8 ± 0.2 ms and an ST of 29.0 ± 2.2 ms. In addition, the “histological examination of cardiomyocytes” value in data set [13] is given as “little damage to cardiomyocytes”. Further, the “tumor weight, PBS treated mice relative to treatment group” value in [14] (day 31) was around 2.4 times. The “TNBC tumor growth (tumor volume)” value in data set [14] (nude mice, LM3-3 tumors) was “can significantly inhibit TNBC tumor growth”.
Take `COc1cc2ncnc(Nc3ccc(F)c(Cl)c3)c2cc1OCCCN1CCOCC1` [gefitinib]: the “toxicity in LM3-3 cells” value in [3] (gefitinib alone, up to 20 μM) is on record as “minimal toxicity”.

These data come from patent publication US20180002371A1 (BAYLOR COLLEGE OF MEDICINE, priority 2014, published 2018).
